Among the test systems are LXFL 529; M19-MEL; SNB-78; XF498; 786-0; BT-549; MDA-N; KM-20L2; RXF 631.
Assay in all cases: DTP human tumour cell line panel, 48 h

The values below come from ChEMBL document CHEMBL1201862, “PubChem BioAssay data set” (2004).

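A five-concentration, 48-hour dose response in 96-well plates underlies each endpoint, interpolated linearly between surrounding concentrations. Abbreviation: GI50, concentration required for 50% inhibition of growth.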 Activity calls are given as the source filed them. Rule as the data show it: active = GI50 up to about 1.1 µM and inactive = higher.

A word on the GI50: it is the concentration that inhibits growth by half. Turning to `CC1(C)OP23(NC(=O)OC2(C(F)(F)F)c2ccccc2O3)OC1(C)C` (stereo not drawn), the GI50 in the assay with LXFL 529, in the assay on M19-MEL, in the assay with SNB-78 and in the assay on XF498 was > 100 µM (inactive) throughout.
`c1ccc(NN/N=N/c2ccc(-c3nc4ccccc4[nH]3)cc2)cc1`: the GI50 with 786-0 was 28.2 µM (inactive); in the assay with BT-549 it was 29.4 µM (inactive); in the assay with MDA-N, 29.9 µM (inactive).
Consider `C[C@]12CC[C@H]3[C@@H](CCC4=CC(=O)CC[C@@]43C)[C@@H]1CC[C@@H]2C(=O)COS(=O)(=O)c1ccc(Br)cc1`, for which the results for the GI50 in the assay with BT-549 and with MDA-N were 10 µM (inactive) and 0.379 µM (active), respectively.
On to `Cc1nc2ccccc2n1C(=O)c1c(F)c(F)c(F)c(F)c1F`, for which the results for the GI50 with BT-549 and with MDA-N were 21 µM (inactive) and 8.69 µM (inactive), respectively.
As for `CN(/N=C1\C(=O)Nc2ccccc21)c1ccccc1`, the GI50 in the assay with MDA-N is 40.6 µM (inactive).
As for `COc1cc(C2C(C(=O)O)=C(CO)Oc3cc4c(cc32)OCO4)cc(OC)c1O` (stereo not drawn), the GI50 in the assay on KM-20L2 and in the assay on SNB-78 was > 100 µM (inactive) each time.
For `Cc1cc(C)n(C(=C(C(Cl)=C(Cl)Cl)[N+](=O)[O-])n2nc(C)cc2C)n1`, the GI50 was 4.56 µM (inactive) in the assay on BT-549 and 4.06 µM (inactive) with MDA-N.
Regarding `O=C(NN1C(=O)CS(=O)(=O)C1c1ccc(Cl)c(Cl)c1)c1ccncc1` (stereo not drawn), the GI50 with KM-20L2 is > 91.4 µM (inactive); with M19-MEL, > 100 µM (inactive); with SNB-78, > 93.1 µM (inactive); in the assay on XF498, > 100 µM (inactive).
On to `C[Si](C)(C)/C=C/CN1C(=O)CCC1=O`, for which the GI50 with KM-20L2, in the assay with LXFL 529, in the assay with M19-MEL, in the assay with SNB-78 and with XF498 was > 100 µM (inactive) throughout.
With `Cc1ccc(Nc2nc3ccccc3nc2NS(=O)(=O)c2ccc(N)cc2)cc1`, the GI50 is 82.4 µM (inactive) with 786-0, 5.35 µM (inactive) in the assay on BT-549 and 41.4 µM (inactive) in the assay on MDA-N.
In the case of `CC1(C)CC(=O)C2=C(C1)OC1=C(CC(C)(C)CC1=O)C2c1ccccc1[N+](=O)[O-]` (stereo not drawn), the GI50 in the assay on 786-0 and in the assay with MDA-N was > 100 µM (inactive) in each case.
As for `O=c1[nH]c(=O)n(C2CC(O)C(CO)O2)cc1C(OCC(F)(F)F)OCC(F)(F)F` (stereo not drawn), the GI50 with 786-0, in the assay on KM-20L2, with LXFL 529, with M19-MEL, in the assay on RXF 631 and in the assay with SNB-78 was > 100 µM (inactive) each time. Also, the GI50 in the assay with XF498 was > 100 µM (inactive).
As to `c1ccc(C(NC2=NCCO2)c2ccccc2)cc1`, the GI50 in the assay with MDA-N is > 10 µM (inactive).
Regarding `ClCC1(CCl)COC1`, the GI50 with MDA-N is > 100 µM (inactive).
Consider `CN(C)C(=S)/N=c1\ssc(=S)n1C`, for which the GI50 in the assay on 786-0, in the assay with KM-20L2, with LXFL 529, with M19-MEL, with RXF 631 and in the assay with SNB-78 was > 100 µM (inactive) each time. In the assay on XF498, the GI50 was > 100 µM (inactive).
On to `Cc1cnc(/N=c2\sc(C)cn2-c2ncc(C)s2)s1`, for which the GI50 in the assay with 786-0, in the assay with BT-549 and in the assay with MDA-N was > 100 µM (inactive) throughout.
Regarding `O=[N+]([O-])c1ccc2[nH]c3c(-c4ccccc4)nccc3c2c1`, the GI50 in the assay on KM-20L2 is 27.6 µM (inactive); with M19-MEL, 25.9 µM (inactive); with SNB-78, 31 µM (inactive); in the assay on XF498, 29.4 µM (inactive).
Regarding `CC(=O)C1CC[C@@H]2[C@H](CC[C@]3(C)[C@@H](O)CC[C@@H]23)[C@H]1C(=O)O` (stereo partly drawn), the GI50 in the assay on BT-549 is > 100 µM (inactive).
Turning to `C[N+](C)([O-])CCOc1cc2c(c3ccccc13)-c1ccccc1C2=O`, the GI50 with KM-20L2 was 20.1 µM (inactive); with M19-MEL, 15.1 µM (inactive); in the assay with SNB-78, 19.8 µM (inactive); in the assay with XF498 it was 16.4 µM (inactive).
Consider `O=C(O)C12CCCCC1CCCC2` (stereo not drawn), for which the GI50 in the assay with KM-20L2, in the assay with LXFL 529, in the assay on M19-MEL and in the assay with XF498 was > 100 µM (inactive) in each case.
`COc1c(Br)cc(CC(N)=O)c(O)c1Br`: the GI50 with KM-20L2, in the assay with M19-MEL, with RXF 631, with SNB-78 and in the assay with XF498 was > 100 µM (inactive) throughout.
As for `CN(C)CCNC(=O)c1cccc2ccc(-c3ccc(F)cc3)nc12`, the GI50 is 4.22 µM (inactive) with KM-20L2, 4.33 µM (inactive) with M19-MEL, 8.85 µM (inactive) in the assay on SNB-78 and 2.94 µM (inactive) in the assay with XF498.
Turning to `COc1nc(SC)nc2c1cnn2C1OC(C(O)CO)C(OC)C1O` (stereo not drawn), the GI50 in the assay with KM-20L2 was > 85.9 µM (inactive); in the assay on M19-MEL, > 75.5 µM (inactive); in the assay on SNB-78, > 85.9 µM (inactive); with XF498 it was > 100 µM (inactive).
Turning to `O=C(O)Cc1cc(F)ccc1C(=O)O`, the GI50 with 786-0, in the assay with BT-549 and in the assay on MDA-N was > 100 µM (inactive) throughout.
